Data published in patent US20120148685A1, “METHODS AND COMPOSITIONS FOR TREATING INSULIN RESISTANCE, DIABETES MELLITUS TYPE 2, METABOLIC SYNDROME AND RELATED DISORDERS” (Engergy4Life AG, priority 2009, published 2012).
Marks after values point to notes of the source that are not given here.

Columns and labels:
[1] = Feed intake, body weight development and feed conversion ratio of Zucker rats fed supplemented diets; assay type: in vivo
From the text: Zucker rats are an established model of human early-onset, hyperplastic-hypertrophic obesity and insulin resistance as well as human non-insulin dependent diabetes mellitus.
(§1) A total of 60 male, 8-10 week old, obese (fa/fa) Zucker rats (Crl:ZUC-Leprfa; Charles River, France) with an initial body weight of 358±24 (mean±SD) g were randomly assigned to five groups of twelve rats each. In addition, 12 male, 8-10 week old, heterozygous lean (fa/+) Zucker rats with an initial body weight of 271±10 g were used as a lean control group. All rats were kept individually in Macrolon cages in a room maintained at 22±1° C. and 50-60% relative humidity with lighting from 06.00 to 18.00 hours. All experimental procedures described followed established guidelines for the care and handling of laboratory animals and were approved by the local Animal Care and Use Committee.
(§2) The rats were fed semi-purified diets which were composed according to the recommendations of the American Institute of Nutrition (AIN)-93G. Five different diets were used differing in their supplementation. […] Diets were prepared by mixing the dry components and subsequent pelleting with a standard pelleting device (Kahl Laborpressanlage Typ 14-175; Reinbek, Germany). Feed was administered ad libitum, and feed intake was recorded weekly. Experimental diets were fed for 4 weeks. Water was available ad libitum from nipple drinkers during the whole experiment.

[2] = Organ weights of the rats; assay type: in vivo; conditions: obese (fa/fa) Zucker rats, supplemented diet fed 4 wk, means ± SD (n = 12)
Method: (§3) All rats were kept individually in Macrolon cages in a room maintained at 22±1° C. and 50-60% relative humidity with lighting from 06.00 to 18.00 hours. All experimental procedures described followed established guidelines for the care and handling of laboratory animals and were approved by the local Animal Care and Use Committee.
(§4) Five different diets were used differing in their supplementation. […] Feed was administered ad libitum, and feed intake was recorded weekly. Experimental diets were fed for 4 weeks. Water was available ad libitum from nipple drinkers during the whole experiment.

[3] = Plasma and lipoprotein lipid concentrations (triacylglycerol, cholesterol; enzymatic kits); assay type: in vivo, Zucker rats; conditions: for Cholesterol, HDL / Cholesterol, Plasma / Cholesterol, VLDL + LDL / Triacylglycerols, Plasma / Triacylglycerols, VLDL + LDL: obese (fa/fa) Zucker rats, supplemented diet 4 wk, fasted, means ± SD (n = 12); for TAG concentration in plasma compared with the niacin+DHA+carnitine group / TAG concentrations in plasma compared with the control group / Cholesterol in the VLDL+LDL fraction compared with the obese control group / TAG concentration in the VLDL+LDL fraction compared with the obese control group: within the obese rats; for TAG concentration in plasma compared with the niacin+DHA+carnitine group / TAG concentrations in plasma compared with the control group: P<0.05; for Cholesterol in the VLDL+LDL fraction compared with the obese control group / TAG concentration in the VLDL+LDL fraction compared with the obese control group: P<0.05 where different
Method: as §1, §2
(§5) The rats were decapitated under CO2 anesthesia in the fasted state. Whole blood was collected into EDTA polyethylene tubes (Sarstedt, Nürnbrecht, Germany). Plasma was separated from whole blood by centrifugation (1,100×g; 10 min) at 4° C. Lipoproteins [VLDL, LDL and high-density lipoproteins (HDL)] were separated by step-wise ultracentrifugation (900,000×g, 1.5 h, 4° C.; Mikro-Ultrazentrifuge, Sorvall Products, Bad Homburg, Germany). All samples were stored at −20° C. pending analysis.
Triacylglycerol and cholesterol concentrations in plasma and lipoproteins were determined using enzymatic reagent kits from Biocon (Vöhl-Marienhagen, Germany).

[4] = Fasting glucose concentration in plasma; assay type: in vivo, Zucker rats; conditions: for Glucose in plasma: obese (fa/fa) Zucker rats, supplemented diet 4 wk, fasted, means ± SD (n = 12); for Fasting glucose concentration compared with the obese control group: within the obese rats, in words, P<0.05 where different
Method: as §1, §2, §5
Glucose concentration in plasma was determined by an enzymatic reagent kit from Analyticon Biotechnologies (Lichtenfels, Germany).

[5] = Non-esterified fatty acids (NEFA) in plasma; assay type: in vivo, Zucker rats; conditions: for NEFA in plasma: obese (fa/fa) Zucker rats, supplemented diet 4 wk, fasted, means ± SD (n = 12); for NEFA concentrations in plasma compared with the obese control group: within the obese rats, in words, P<0.05
Method: as §1, §2, §5
NEFA concentrations in plasma were determined using the NEFA kit from Wako Chemicals (Neuss, Germany).

[6] = system: leptin; assay: Leptin in plasma (rat ELISA); assay type: in vivo, Zucker rats; conditions: for Leptin in plasma: obese (fa/fa) Zucker rats, supplemented diet 4 wk, fasted, means ± SD (n = 12); for Leptin concentrations in plasma compared with the obese control group: within the obese rats, in words, P<0.05 where different
Method: as §1, §2, §5
(§6) Concentrations of leptin in plasma was determined by rat ELISA kits from BioVendor (Heidelberg, Germany). Concentration of high molecular weight adiponectin was determined by a rat ELISA kit from Shibayagi (Ishihara, Shibukawa, Gunma, Japan).

[7] = system: high molecular weight adiponectin; assay: High molecular weight adiponectin in plasma (rat ELISA); assay type: in vivo; conditions: obese (fa/fa) Zucker rats, supplemented diet 4 wk, fasted, means ± SD (n = 12)
Method: as §1, §2, §5, §6

[8] = system: sterol regulatory element-binding protein (SREBP)-1c; assay: Relative mRNA concentration in liver, lipogenesis: SREBP-1c; assay type: in vivo, Zucker rats
Method: as §3, §4

[9] = system: fatty acid synthase (FAS); assay: Relative mRNA concentration in liver, lipogenesis: FAS; assay type: in vivo, Zucker rats
Method: as §3, §4

[10] = system: stearoyl-CoA desaturase (SCD); assay: Relative mRNA concentration in liver, lipogenesis: SCD; assay type: in vivo; conditions: liver of obese Zucker rats, diet 4 wk, obese control = 1.00, means ± SD (n = 12)
Method: as §3, §4

[11] = system: fatty acid binding protein (FABP); assay: Relative mRNA concentration in liver, fatty acid uptake: FABP; assay type: in vivo, Zucker rats
Method: as §3, §4

[12] = system: fatty acid transport protein (FATP); assay: Relative mRNA concentration in liver, fatty acid uptake: FATP; assay type: in vivo; conditions: liver of obese Zucker rats, diet 4 wk, obese control = 1.00, means ± SD (n = 12)
Method: as §3, §4

[13] = system: scavenger receptor CD36; assay: Relative mRNA concentration in liver, fatty acid uptake: CD36; assay type: in vivo; conditions: liver of obese Zucker rats, diet 4 wk, obese control = 1.00, means ± SD (n = 12)
Method: as §3, §4

[14] = system: lipoprotein lipase (LPL); assay: Relative mRNA concentration in liver, fatty acid uptake: LPL; assay type: in vivo; conditions: liver of obese Zucker rats, diet 4 wk, obese control = 1.00, means ± SD (n = 12)
Method: as §3, §4

[15] = system: acyl-CoA oxidase (ACO); assay: Relative mRNA concentration in liver, fatty acid oxidation: ACO; assay type: in vivo; conditions: liver of obese Zucker rats, diet 4 wk, obese control = 1.00, means ± SD (n = 12)
Method: as §3, §4

[16] = system: liver-type carnitine-palmitoyltransferase (L-CPT) I; assay: Relative mRNA concentration in liver, fatty acid oxidation: L-CPT I; assay type: in vivo; conditions: liver of obese Zucker rats, diet 4 wk, obese control = 1.00, means ± SD (n = 12)
Method: as §3, §4

[17] = obese (fa/fa) Zucker rats, supplemented diet fed 4 wk, means ± SD (n = 12)
[18] = within the obese rats, in words, P<0.05 where different
[19] = liver of obese Zucker rats, diet 4 wk, obese control = 1.00, means ± SD (n = 12)

With `C[N+](C)(C)CC(O)CC(=O)[O-]` (centres unmarked) [carnitine] the “Daily body weight gain” value [1, 17] was 4.85 ± 0.48 ^a g, the Feed conversion ratio [1, 17] was 5.18 ± 0.63 ^bc g/g and the Feed intake [1, 17] was 25.1 ± 3.4 ^b g/d. For the same molecule, the Final body weight [1, 17] was 496 ± 31 ^a g, the “Total body weight gain” value [1, 17] was 138 ± 13 ^a g and the “Daily feed intake compared with the obese control group” value [1, 18] was “did not differ”. For the same molecule, the “Feed conversion ratio compared with the obese control group” value [1, 18] was “did not differ much”, the “Absolute organ weights: Heart” value [2] was 1.36 ± 0.12 g and the “Absolute organ weights: Kidney” value [2] was 2.75 ± 0.66 g. The “Absolute organ weights: Liver” value [2] was 25.0 ± 2.8 ^a g, the “Relative organ weights: Heart” value [2] was 2.73 ± 0.15 ^b mg/g body weight and the “Relative organ weights: Kidney” value [2] was 5.52 ± 1.17 mg/g body weight. For the same molecule, the “Relative organ weights: Liver” value [2] was 50.4 ± 4.4 ^a mg/g body weight, the “Cholesterol, HDL” value [3] was 4.64 ± 0.50 ^a mmol/L and the “Cholesterol, Plasma” value [3] was 7.68 ± 0.92 ^ab mmol/L. The “Cholesterol, VLDL + LDL” value [3] was 3.12 ± 0.39 ^b mmol/L, the “Triacylglycerols, Plasma” value [3] was 4.41 ± 0.85 ^c mmol/L and the “Triacylglycerols, VLDL + LDL” value [3] was 2.65 ± 0.57 ^b mmol/L. The “TAG concentration in plasma compared with the niacin+DHA+carnitine group” value ([3]; in words) was “lower”, the “TAG concentrations in plasma compared with the control group” value ([3]; in words) was “lower” and the “Cholesterol in the VLDL+LDL fraction compared with the obese control group” value ([3]; in words) was “did not differ”. For the same molecule, the “TAG concentration in the VLDL+LDL fraction compared with the obese control group” value ([3]; in words) was “did not differ”, the Glucose in plasma [4] was 7.86 ± 0.75 ^ab mmol/L and the “Fasting glucose concentration compared with the obese control group” value [4] was “did not differ”. For the same molecule, the NEFA in plasma [5] was 2.41 ± 0.57 ^b mmol/L, the “NEFA concentrations in plasma compared with the obese control group” value [5] was “lower” and the Leptin in plasma [6] was 6.09 ± 1.29 ^bc ng/mL. For the same molecule, the “Leptin concentrations in plasma compared with the obese control group” value [6] was “did not differ”, the Adiponectin in plasma [7] was 122 ± 12 ng/mL and the “Relative mRNA concentration, SREBP-1c” value [8, 19] was 0.78 ± 0.31 ^ab. The “Relative mRNA concentration of SREBP-1c in the liver compared with the obese control group” value [8, 18] was “did not differ”, the “Gene expression of fatty acid synthase” value ([9]; conclusions, liver of obese diabetic rats, in words) was “lowered” and the “Relative mRNA concentration, FAS” value [9, 19] was 0.53 ± 0.49 ^b. For the same molecule, the “Relative mRNA concentration of FAS in the liver compared with the obese control group” value [9, 18] was “lower”, the “Relative mRNA concentration, SCD” value [10] was 0.99 ± 0.33 ^a and the “Relative mRNA concentration of FABP in the liver compared with the other groups” value ([11]; in words, P<0.05 where different) was “did not differ”. The “Relative mRNA concentration, FABP” value [11, 19] was 0.83 ± 0.29 ^ab, the “Relative mRNA concentration, FATP” value [12] was 0.93 ± 0.76 and the “Relative mRNA concentration, CD36” value [13] was 0.87 ± 0.22 ^a. The “Relative mRNA concentration, LPL” value [14] was 1.04 ± 0.20, the “Relative mRNA concentration, ACO” value [15] was 1.15 ± 0.37 and the “Relative mRNA concentration, L-CPT I” value [16] was 1.15 ± 0.41.
In the case of `O=C(O)c1cccnc1` [niacin, pyridine-3-carboxylic acid, reference compound], the “Daily body weight gain” value [1, 17] is reported as 4.95 ± 0.73 ^a g, the Feed intake [1, 17] is reported as 26.2 ± 2.3 ^ab g/d and the Final body weight [1, 17] is reported as 500 ± 43 ^a g. The “Total body weight gain” value [1, 17] was 141 ± 19 ^a g, the “Daily feed intake compared with the obese control group” value [1, 18] was “did not differ” and the “Absolute organ weights: Kidney” value [2] was 2.57 ± 0.49 g. For the same molecule, the “Lowering of cholesterol in plasma and VLDL/LDL” value ([3]; conclusions, obese diabetic rats, in words) was “significant effect on lowering”, the “Cholesterol, HDL” value [3] was 4.54 ± 0.54 ^a mmol/L and the “Cholesterol, Plasma” value [3] was 6.91 ± 1.13 ^b mmol/L. For the same molecule, the “Cholesterol, VLDL + LDL” value [3] was 2.70 ± 0.27 ^c mmol/L, the “Triacylglycerols, Plasma” value [3] was 3.17 ± 0.40 ^d mmol/L and the “Triacylglycerols, VLDL + LDL” value [3] was 2.08 ± 0.40 ^c mmol/L. The “TAG concentration in plasma compared with the niacin+DHA+carnitine group” value ([3]; in words) was “lower”, the “TAG concentrations in plasma compared with the control group” value ([3]; in words) was “lower” and the “Cholesterol in the VLDL+LDL fraction compared with the obese control group” value ([3]; in words) was “lower”. For the same molecule, the “TAG concentration in the VLDL+LDL fraction compared with the obese control group” value ([3]; in words) was “lower”, the Glucose in plasma [4] was 7.36 ± 0.64 ^b mmol/L and the “Fasting glucose concentration compared with the obese control group” value [4] was “lower”. For the same molecule, the NEFA in plasma [5] was 2.25 ± 0.46 ^b mmol/L, the “NEFA concentrations in plasma compared with the obese control group” value [5] was “lower” and the Leptin in plasma [6] was 6.17 ± 0.71 ^b ng/mL. For the same molecule, the “Leptin concentrations in plasma compared with the obese control group” value [6] was “higher” and the Adiponectin in plasma [7] was 134 ± 21 ng/mL.
